Format in all cases: in vivo
Test [1] has as its system chickweed (Stellaria media). The test is described as follows: Postemergence herbicidal activity, chickweed. The note with it: foliar spray, visual after 2 weeks, 0 no injury, 100 complete kill. The procedure, abridged: (§1)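 Visual injury, rated 0–100% against untreated plants 2 weeks after treatment, is the read-out. Compound was sprayed to thorough coverage on seedlings at the first or second true leaf stage, with application rates where 1 ppm equals roughly 1 g/ha.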

The subject of test [2] is cocklebur (Xanthium strumarium). Put plainly: Postemergence herbicidal activity, cocklebur. The note with it: foliar spray, visual after 2 weeks, 0 no injury, 100 complete kill. An outline of the steps:
as §1

For test [3], the system named is lambsquarters (Chenopodium album). Put plainly: Postemergence herbicidal activity, lambsquarters. The note with it: foliar spray, visual after 2 weeks, 0 no injury, 100 complete kill. An outline of the steps: as §1
For test [4], the system named is morningglory (Ipomoea hederacea). Put plainly: Postemergence herbicidal activity, morningglory. The note with it: foliar spray, visual after 2 weeks, 0 no injury, 100 complete kill. The procedure, abridged: as §1
Test [5] relates to pigweed (Amaranthus retroflexus). Put plainly: Postemergence herbicidal activity, pigweed. Conditions: foliar spray, visual after 2 weeks, 0 no injury, 100 complete kill. The procedure, abridged:
as §1

Test [6] has as its system velvetleaf (Abutilion theophrasti). Put plainly: Postemergence herbicidal activity, velvetleaf. Conditions: foliar spray, visual after 2 weeks, 0 no injury, 100 complete kill. An outline of the steps:
as §1

A further test relates to viola (Viola tricolor). Put plainly: Postemergence herbicidal activity, viola. Conditions: foliar spray, visual after 2 weeks, 0 no injury, 100 complete kill. The procedure, abridged: as §1
For test [7], the system named is wild buckwheat (Polygonum convolvulus). The test is described as follows: Postemergence herbicidal activity, wild buckwheat. Conditions: foliar spray, visual after 2 weeks, 0 no injury, 100 complete kill. The procedure, abridged: as §1
Test [8] relates to blackgrass (Alopecurus myosuroides). The test is described as follows: Postemergence herbicidal activity, blackgrass. Conditions: foliar spray, visual after 2 weeks, 0 no injury, 100 complete kill. The procedure, abridged: as §1
Test [9] deals with giant foxtail (Setaria faberi). Put plainly: Postemergence herbicidal activity, giant foxtail. Conditions: foliar spray, visual after 2 weeks, 0 no injury, 100 complete kill. The procedure, abridged:
as §1

Test [10] has as its system Rox orange sorghum (Sorghum bicolor). The test is described as follows: Postemergence herbicidal activity, Rox orange sorghum. Conditions: foliar spray, visual after 2 weeks, 0 no injury, 100 complete kill. The procedure, abridged:
as §1

Test [11] relates to wild oats (Avena fatua). The test is described as follows: Postemergence herbicidal activity, wild oats. The note with it: foliar spray, visual after 2 weeks, 0 no injury, 100 complete kill. An outline of the steps:
as §1

Test [12] has as its system cocklebur (Xanthium strumarium). The test is described as follows: Preemergence herbicidal activity, cocklebur. Conditions: soil spray, visual after 3 weeks, 0 no injury, 100 complete kill or no germination. The procedure, abridged:
(§2)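 Test compounds are sprayed pre-emergence onto soil in seeded pots (highest rate 4.48 kg/ha) using an aqueous surfactant carrier, and the plants are grown in a greenhouse for 3 weeks. Injury is then rated by eye, 0 to 100%, against untreated plants.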

Test [13] concerns lambsquarters (Chenopodium album). Put plainly: Preemergence herbicidal activity, lambsquarters. The note with it: soil spray, visual after 3 weeks, 0 no injury, 100 complete kill or no germination. An outline of the steps: as §2
Test [14] concerns morningglory (Ipomoea hederacea). Put plainly: Preemergence herbicidal activity, morningglory. Conditions: soil spray, visual after 3 weeks, 0 no injury, 100 complete kill or no germination. An outline of the steps: as §2
The subject of test [15] is pigweed (Amaranthus retroflexus). The test is described as follows: Preemergence herbicidal activity, pigweed. Conditions: soil spray, visual after 3 weeks, 0 no injury, 100 complete kill or no germination. The procedure, abridged: as §2
Test [16] deals with velvetleaf (Abutilion theophrasti). Put plainly: Preemergence herbicidal activity, velvetleaf. The note with it: soil spray, visual after 3 weeks, 0 no injury, 100 complete kill or no germination. The procedure, abridged: as §2
Test [17] relates to wild poinsettia (Euphorbia heterophylla). Put plainly: Preemergence herbicidal activity, wild poinsettia. Conditions: soil spray, visual after 3 weeks, 0 no injury, 100 complete kill or no germination. An outline of the steps: as §2
In test [18] the test system is blackgrass (Alopecurus myosuroides). The test is described as follows: Preemergence herbicidal activity, blackgrass. Conditions: soil spray, visual after 3 weeks, 0 no injury, 100 complete kill or no germination. The procedure, abridged: as §2
Test [19] has as its system barnyardgrass (Echinochloa crus-galli). Put plainly: Preemergence herbicidal activity, barnyardgrass. Conditions: soil spray, visual after 3 weeks, 0 no injury, 100 complete kill or no germination. The procedure, abridged:
as §2

The subject of test [20] is crabgrass (Digitaria sanguinalis). Put plainly: Preemergence herbicidal activity, crabgrass. The note with it: soil spray, visual after 3 weeks, 0 no injury, 100 complete kill or no germination. The procedure, abridged: as §2
Test [21] relates to giant foxtail (Setaria faberi). The test is described as follows: Preemergence herbicidal activity, giant foxtail. The note with it: soil spray, visual after 3 weeks, 0 no injury, 100 complete kill or no germination. An outline of the steps: as §2
The test system of test [22] is Rox orange sorghum (Sorghum bicolor). Put plainly: Preemergence herbicidal activity, Rox orange sorghum. The note with it: soil spray, visual after 3 weeks, 0 no injury, 100 complete kill or no germination. An outline of the steps:
as §2

The subject of test [23] is wild oats (Avena fatua). The test is described as follows: Preemergence herbicidal activity, wild oats. The note with it: soil spray, visual after 3 weeks, 0 no injury, 100 complete kill or no germination. The procedure, abridged: as §2

In the case of `COc1csc(Cl)c1S(=O)(=O)Nc1nc2c(Cl)cnc(OC)n2n1` [Compound 20], in test [1] (31.3 ppm), the “STEME postemergence injury score 0-100” value is 85%. In test [2] (31.3 ppm), the “XANST postemergence injury score 0-100” value is reported as 100%. The “CHEAL postemergence injury score 0-100” value in test [3] (31.3 ppm) is listed as 75%. Moreover, the “IPOHE postemergence injury score 0-100” value in test [4] (31.3 ppm) was found to be 75%. Moreover, the “AMARE postemergence injury score 0-100” value in test [5] (31.3 ppm) worked out at 95%. For the same compound, in [6] (31.3 ppm), the “ABUTH postemergence injury score 0-100” value is reported as 85%. Also, the “VIOTR postemergence injury score 0-100” value with viola (Viola tricolor) (31.3 ppm) is given as 90%. Moreover, in test [7] (31.3 ppm), the “POLCO postemergence injury score 0-100” value amounted to 90%. Moreover, the “ALOMY postemergence injury score 0-100” value in test [8] (31.3 ppm) came to 30%. Also, in [9] (31.3 ppm), the “SETFA postemergence injury score 0-100” value turned out to be 50%. Also, the “SORBI postemergence injury score 0-100” value in test [10] (31.3 ppm) is on record as 85%. Besides, the “AVEFA postemergence injury score 0-100” value with wild oats (Avena fatua) [11] (31.3 ppm) is 70%. Besides, the “XANST preemergence injury score 0-100” value in test [12] (17.5 g/Ha) was 60%. Also, the “CHEAL preemergence injury score 0-100” value in test [13] (17.5 g/Ha) is 70%. In [14] (17.5 g/Ha), the “IPOHE preemergence injury score 0-100” value was determined as 70%. Further, the “AMARE preemergence injury score 0-100” value in test [15] (17.5 g/Ha) amounted to 80%. Further, the “ABUTH preemergence injury score 0-100” value in test [16] (17.5 g/Ha) is 80%. Further, in [17] (17.5 g/Ha), the “EPHHL preemergence injury score 0-100” value is 50%. For the same compound, in test [18] (17.5 g/Ha), the “ALOMY preemergence injury score 0-100” value is 90%. Besides, the “ECHCG preemergence injury score 0-100” value in test [19] (17.5 g/Ha) came to 95%. For the same compound, in test [20] (17.5 g/Ha), the “DIGSA preemergence injury score 0-100” value is 85%. The “SETFA preemergence injury score 0-100” value in test [21] (17.5 g/Ha) was 50%. Further, the “SORBI preemergence injury score 0-100” value in test [22] (17.5 g/Ha) is recorded as 90%. Besides, the “AVEFA preemergence injury score 0-100” value in the test with wild oats (Avena fatua) [23] (17.5 g/Ha) is 90%.
Turning to `COc1cc(Cl)sc1S(=O)(=O)Nc1nc2c(OC)cnc(OC)n2n1` [Compound 3], the “STEME postemergence injury score 0-100” value in [1] (31 ppm) was found to be 70%. For the same compound, the “XANST postemergence injury score 0-100” value in test [2] (31 ppm) was found to be 100%. Besides, in test [3] (31 ppm), the “CHEAL postemergence injury score 0-100” value turned out to be 95%. In test [4] (31 ppm), the “IPOHE postemergence injury score 0-100” value was determined as 70%. Further, the “AMARE postemergence injury score 0-100” value in test [5] (31 ppm) is listed as 100%. Also, the “ABUTH postemergence injury score 0-100” value in [6] (31 ppm) amounted to 70%. In the test on viola (Viola tricolor) (31 ppm), the “VIOTR postemergence injury score 0-100” value was 80%. In addition, the “POLCO postemergence injury score 0-100” value in [7] (31 ppm) came to 85%. Moreover, the “ALOMY postemergence injury score 0-100” value in test [8] (31 ppm) was 70%. Besides, the “SETFA postemergence injury score 0-100” value in test [9] (31 ppm) came out at 85%. For the same compound, the “SORBI postemergence injury score 0-100” value in [10] (31 ppm) was found to be 90%. The “AVEFA postemergence injury score 0-100” value in the test on wild oats (Avena fatua) [11] (31 ppm) was found to be 80%. Moreover, the “XANST preemergence injury score 0-100” value in test [12] (35 g/Ha) is recorded as 70%. In addition, the “CHEAL preemergence injury score 0-100” value in test [13] (35 g/Ha) worked out at 95%. Moreover, in test [14] (35 g/Ha), the “IPOHE preemergence injury score 0-100” value came out at 60%. Further, the “AMARE preemergence injury score 0-100” value in test [15] (35 g/Ha) is 95%. Besides, in [16] (35 g/Ha), the “ABUTH preemergence injury score 0-100” value was 50%. Further, the “EPHHL preemergence injury score 0-100” value in test [17] (35 g/Ha) was found to be 70%. Also, in test [18] (35 g/Ha), the “ALOMY preemergence injury score 0-100” value is 80%. In addition, the “ECHCG preemergence injury score 0-100” value in test [19] (35 g/Ha) worked out at 70%. The “DIGSA preemergence injury score 0-100” value in [20] (35 g/Ha) is recorded as 95%. Besides, in test [21] (35 g/Ha), the “SETFA preemergence injury score 0-100” value is reported as 90%. The “SORBI preemergence injury score 0-100” value in test [22] (35 g/Ha) came out at 90%. Moreover, in the test on wild oats (Avena fatua) [23] (35 g/Ha), the “AVEFA preemergence injury score 0-100” value is on record as 70%.

For the origin of these results see patent publication US6645918B1, “N-([1,2,4]triazoloazinyl)thiophenesulfonamide compounds and their use as herbicides” (Dow AgroSciences LLC, priority 2000, dated 2003).
